Source: patent US20230357166A1, “PIPERAZINE-BASED CATIONIC LIPIDS” (TRANSLATE BIO, INC., priority 2020, published 2023)

Each molecule was assayed on male CD1 mice (assay: Delivery of Firefly Luciferase (FFL) mRNA by intratracheal administration of lipid nanoparticles). Conditions: lipid nanoparticles (Process A) with FFL mRNA, cationic lipid, DMG-PEG2000, cholesterol and DOPE (40:5:25:30 or 45:5:20:30 mol %); single intratracheal aerosol administration; IVIS imaging approximately 24 hours post-dose; FIG. 1.
Format: in vivo
Protocol: One exemplary process for lipid nanoparticle formulation is Process A of WO 2018/089801 (see, e.g., Example 1 and FIG. 1 of WO 2018/089801). Process A (“A”) relates to a conventional method of encapsulating mRNA by mixing mRNA with a mixture of lipids, without first pre-forming the lipids into lipid nanoparticles. In an exemplary process, an ethanol lipid solution and an aqueous buffered solution of mRNA were prepared separately. A solution of mixture of lipids (cationic lipid, helper lipids, zwitterionic lipids, PEG lipids etc.) was prepared by dissolving lipids in ethanol. The mRNA solution was prepared by dissolving the mRNA in citrate buffer. Then, these two solutions were mixed using a pump system. In some instances, the two solutions were mixed using a gear pump system. In certain embodiments, the two solutions were mixing using a ‘T’ junction (or “Y” junction). The mixture was then purified by diafiltration with a TFF process. The resultant formulation concentrated and stored at 2-8° C. until further use.
Lipid nanoparticle formulations prepared using Process A comprising FFL mRNA, cationic lipid, DMG-PEG2000, cholesterol and DOPE (40:5:25:30 or 45:5:20:30 mol % ratio) were administered to male CD1 mice (6-8 weeks old) by a single intratracheal aerosol administration via a Microsprayer® (50 ul/animal) while under anesthesia. At approximately 24 hours post-dose, the animals were dosed with luciferin at 150 mg/kg (60 mg/ml) by intraperitoneal injection at 2.5 ml/kg. After 5-15 minutes, all animals were imaged using an IVIS imaging system to measure luciferase production in the lung.

**Q.** How did the “in vivo protein production (FFL protein; luciferase production in the lung)” value (“in vivo protein production” for short) turn out when CCCCCCCCC(O)CN(CCCC(=O)OCCN1CC(C)N(CCOC(=O)CCCN(CC(O)CCCCCCCC)CC(O)CCCCCCCC)CC1C)CC(O)CCCCCCCC (stereo not shown) [Compound A9] was run?
**A.** high levels of in vivo protein production

**Q.** How did the “in vivo protein production” value turn out when CCCCCCCCCCCCC(O)CN(CCCC(=O)OCCN1CC(C)N(CCOC(=O)CCCN(CC(O)CCCCCCCCCCCC)CC(O)CCCCCCCCCCCC)CC1C)CC(O)CCCCCCCCCCCC (stereo not shown) [Compound A11] was run?
**A.** high levels of in vivo protein production

**Q.** CCCCC/C=C\C/C=C\CCCCCCC(O)CN(CCCC(=O)OCCN1CC(C)N(CCOC(=O)CCCN(CC(O)CCCCCC/C=C\C/C=C\CCCCC)CC(O)CCCCCC/C=C\C/C=C\CCCCC)CC1C)CC(O)CCCCCC/C=C\C/C=C\CCCCC (stereo not shown) [Compound A15] was tested. Which “in vivo protein production” value did it give?
**A.** high levels of in vivo protein production

**Q.** For CCCCCCCCC(O)CN(CCCCC(=O)OCCN1CC(C)N(CCOC(=O)CCCCN(CC(O)CCCCCCCC)CC(O)CCCCCCCC)CC1C)CC(O)CCCCCCCC (stereo not shown) [Compound A17], which “in vivo protein production” value is on record?
**A.** high levels of in vivo protein production

**Q.** How did the “in vivo protein production” value turn out when CCCCCCCCCCC(O)CN(CCCCC(=O)OCCN1CC(C)N(CCOC(=O)CCCCN(CC(O)CCCCCCCCCC)CC(O)CCCCCCCCCC)CC1C)CC(O)CCCCCCCCCC (stereo not shown) [Compound A18] was run?
**A.** high levels of in vivo protein production

**Q.** CCCCCCCCCCCCC(O)CN(CCCCC(=O)OCCN1CC(C)N(CCOC(=O)CCCCN(CC(O)CCCCCCCCCCCC)CC(O)CCCCCCCCCCCC)CC1C)CC(O)CCCCCCCCCCCC (stereo not shown) [Compound A19] was tested. Which “in vivo protein production” value did it give?
**A.** high levels of in vivo protein production

**Q.** Which “in vivo protein production” value does the source give for CCCCCCCCC(O)CN(CCCC(=O)SCCN1CC(C)N(CCSC(=O)CCCN(CC(O)CCCCCCCC)CC(O)CCCCCCCC)CC1C)CC(O)CCCCCCCC (stereo not shown) [Compound C9] here?
**A.** high levels of in vivo protein production

**Q.** How did the “in vivo protein production” value turn out when CCCCCCCCC(O)CN(CCCCC(=O)SCCN1CC(C)N(CCSC(=O)CCCCN(CC(O)CCCCCCCC)CC(O)CCCCCCCC)CC1C)CC(O)CCCCCCCC (stereo not shown) [Compound C17] was run?
**A.** high levels of in vivo protein production

**Q.** For CCCCCCCCOC(=O)CCN(CCCCC(=O)OCCN1CC(C)N(CCOC(=O)CCCCN(CCC(=O)OCCCCCCCC)CCC(=O)OCCCCCCCC)CC1C)CCC(=O)OCCCCCCCC (stereo not shown) [Compound D21], which “in vivo protein production” value is on record?
**A.** high levels of in vivo protein production

**Q.** How did the “in vivo protein production” value turn out when CC(C)CCCCCCCOC(=O)CCN(CCCCC(=O)OCCN1CC(C)N(CCOC(=O)CCCCN(CCC(=O)OCCCCCCCC(C)C)CCC(=O)OCCCCCCCC(C)C)CC1C)CCC(=O)OCCCCCCCC(C)C (stereo not shown) [Compound D23] was run?
**A.** high levels of in vivo protein production
